Source: PubChem BioAssay (NCI)
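Briefly, cells in 96-well plates were exposed to five compound concentrations for 48 h, and endpoints were estimated by linear interpolation. TGI is the concentration that stops growth completely.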

How the values were obtained:
Experiment in all cases: NCI-60 cell line screen, 48 h
U251 CNS = system: U251 CNS
HOP-62 NSCLC = system: HOP-62 NSCLC
RPMI-8226 leukemia = system: RPMI-8226 leukemia
NCI/ADR-RES ovarian = system: NCI/ADR-RES ovarian
UACC-257 melanoma = system: UACC-257 melanoma
EKVX NSCLC = system: EKVX NSCLC
ACHN renal = system: ACHN renal
A498 renal = system: A498 renal
NCI-H522 lung = system: NCI-H522 lung
SK-OV-3 ovarian = system: SK-OV-3 ovarian
HT29 colon = system: HT29 colon
MDA-MB-435 = system: MDA-MB-435
HL-60(TB) leukemia = system: HL-60(TB) leukemia
OVCAR-4 ovarian = system: OVCAR-4 ovarian
RXF 393 renal = system: RXF 393 renal
SF-539 CNS = system: SF-539 CNS
MCF7 breast = system: MCF7 breast
OVCAR-8 ovarian = system: OVCAR-8 ovarian
NCI-H23 lung = system: NCI-H23 lung
OVCAR-5 ovarian = system: OVCAR-5 ovarian

Structure (SMILES) | TGI (U251 CNS) [µM] | TGI (HOP-62 NSCLC) [µM] | TGI (RPMI-8226 leukemia) [µM] | TGI (NCI/ADR-RES ovarian) [µM] | TGI (UACC-257 melanoma) [µM] | TGI (EKVX NSCLC) [µM] | TGI (ACHN renal) [µM] | TGI (A498 renal) [µM] | TGI (NCI-H522 lung) [µM] | TGI (SK-OV-3 ovarian) [µM] | TGI (HT29 colon) [µM] | TGI (MDA-MB-435) [µM] | TGI (HL-60(TB) leukemia) [µM] | TGI (OVCAR-4 ovarian) [µM] | TGI (RXF 393 renal) [µM] | TGI (SF-539 CNS) [µM] | TGI (MCF7 breast) [µM] | TGI (OVCAR-8 ovarian) [µM] | TGI (NCI-H23 lung) [µM] | TGI (OVCAR-5 ovarian) [µM]
CNC(=O)NCCN1CC2CCC(CC2)C1 | > 10 | > 10 | > 10 | > 10 | > 10 | > 10 | > 10 | > 10 | > 10 | > 10 | > 10 | > 10 | > 10 | > 10 | > 10 | > 10 | > 10 | > 10 | > 10 | 
O=C(O)c1cc2c(cc1CC(Cc1ccc3c(c1)CCCC3)C(=O)O)CCCC2 (stereo not given) | > 100 | > 100 | > 100 | > 100 | > 100 | > 100 | > 100 | > 100 | > 100 | > 100 | > 100 | > 100 | > 100 | 0.758 | > 100 | > 100 | > 100 | > 100 | > 100 | > 100
Clc1ccc(C(Cc2cccc(Cl)c2)c2c(Cl)nc(N3CCNCC3)nc2Cl)cc1 (stereo not given) | 30 | 28.9 | 52.2 | 36.2 | 37.6 | > 100 | 28.8 | 28.5 | 28 | 27.1 | > 100 | 30.3 | 23.1 | 31.3 |  | 35.2 | 24.6 | 38.4 | 34.1 | 25
CCOC(=O)C1(N)CCc2[nH][nH]c(=O)c2C1 (stereo not given) | > 100 | > 100 | > 100 | > 100 | > 100 | > 100 | > 100 | > 100 | > 100 | > 100 | > 100 | > 100 | > 100 | > 100 |  | > 100 | > 100 | > 100 | > 100 | > 100
Cn1ncc2c(Nc3cccc(Cl)c3)nc(Nc3cccc(Cl)c3)nc21 | 52.1 | 68.6 | 19.8 | 37.3 | 25.9 | 54.8 | 29.2 | 28.9 | 39.1 | 54 | > 56.8 | > 57.6 | 44.9 | 47.6 | 11.6 | 52 | 32.1 | > 100 | 57.1 | 38.8
CN(C)CCCNc1ncnc2c1ncn2C1OC(CO)C(O)C1O (stereo not given) | > 100 | > 100 | > 100 | > 100 | > 100 | > 100 | > 100 | > 100 | > 100 | > 100 | > 100 | > 100 | > 100 | > 100 | > 100 | > 100 | > 100 | > 100 | > 100 | > 100
CC(Oc1ccccc1Cl)C(=O)NN1C(=O)CC(=O)NC1=S (stereo not given) | > 100 | > 100 | > 100 | > 100 | > 100 | > 100 | > 100 | > 100 | > 100 | > 100 | > 100 | > 100 | > 100 | > 100 | > 100 | > 100 | > 100 | > 100 | > 100 | > 100
O=C1/C(=C/c2ccco2)N=C2Sc3c(nc[nH]c3=O)N12 | > 100 | > 100 | > 100 | > 100 | > 100 | > 100 | > 100 | > 100 | > 100 | > 100 | > 100 | > 100 | > 100 | > 100 | > 100 | > 100 | > 100 | > 100 | > 100 | > 100
C=C1CCCC(C)(C)C1CCC1(C)CCC(C(C)C(=O)OC)OO1 (stereo not given) | 7.21 | 4.7 | 25 | > 18.4 | > 25 | 21.8 | 2.75 | > 15.3 | 12.6 | 9.43 | > 25 | 7.59 | 9.16 | 17.4 | 11.7 | > 22.2 | > 25 | > 19.8 | 8.99 | > 23.1
C=C/C(C)=C\CC1[C@](C)(O)CC[C@H]2C(C)(C)C(O)CC[C@]12C (stereo not given in full) | > 100 |  | > 100 | > 100 | > 100 | > 100 | > 100 | > 100 | > 100 |  | > 100 | > 100 | > 100 | > 100 | > 100 | > 100 | > 100 | > 100 | > 100 | > 100
CC(C)(C)OC(=O)NC(Cc1ccc(O)cn1)C(=O)O (stereo not given) | > 100 | > 100 | > 100 | > 100 | > 100 | > 100 | > 100 | > 100 | > 100 |  | > 100 | > 100 | > 100 | > 100 | > 100 | > 100 | > 100 | > 100 | > 100 | > 100
CCN(CC)C1CCC(C2c3cc4c(cc3OC(N3CCOCC3)C2C)OCO4)CC1 (stereo not given) | > 100 | > 70.3 | > 55.5 | > 83.1 | > 100 | > 100 | > 100 | 60.7 | 72.5 |  | 25.7 | > 100 | 89.8 | > 100 | 52.7 | 57 | > 84.1 | > 100 | > 100 | 96.9
CC1=NC2c3c(-c4ccc(Cl)cc4)cn(-c4ccc(C)cc4)c3N=CN2N1 (stereo not given) | > 100 | > 100 |  | > 100 | > 100 | > 100 | > 100 | > 100 | > 100 | > 100 | > 100 | > 100 | > 100 | 33.3 | > 100 | > 100 | > 100 | > 100 | > 100 | > 100
Cc1ccc([N+](=O)[O-])cc1S(=O)(=O)Nc1ccc(C2=NOC(c3cccs3)C2)cc1 (stereo not given) |  | 29.1 | 94.5 | 41.1 | 49.6 | 65 | 46.3 | 36.7 | 21.2 | 52.2 | 40.2 | 10.4 | 25.7 | 32.3 | 22.4 | 56.5 | 23.4 | 69.9 | 73.4 | > 100
C=CCN1C[C@H](C)N([C@@H](c2ccc(C(=O)N3CCCCC3)cc2)c2cccc(OC)c2)C[C@H]1C | > 100 | > 100 |  | > 100 | 50 | > 100 | > 100 | > 100 | 55 | > 100 | > 100 | > 100 | 21.5 | > 100 | > 100 | 67.7 | > 100 | > 100 | > 100 | > 100
Nc1ccc(Oc2ccc(C3(c4ccc(Oc5ccc(N)cc5)cc4)C4CC5CC(C4)CC3C5)cc2)cc1 | 21.5 | 32.3 | 17.4 | > 100 | > 100 | > 81.4 | > 62.9 | 9.36 | > 59.7 |  | 24.7 | 35.6 | 44.3 | > 74 | 20.9 | > 66.2 | > 52.7 | > 48.9 | > 48.3 | > 100
O=C(OCc1ccc([N+](=O)[O-])cc1)N1c2ccccc2[C@@]23O[C@]24CCC[C@H]3C#C/C=C\C#C[C@H]14 | > 100 |  |  | > 100 | > 100 | > 100 | > 100 | > 100 | > 100 | > 100 | > 100 | > 100 | > 100 | > 100 | > 100 | > 100 | > 100 | > 100 | > 100 | > 100
C#C/C=C\CCCCCCCCCCCCCC/C=C\CCCCC#CC(O)C#CCCCC/C=C\CCCCCC/C=C/C(O)C#C (stereo not given) | > 75 | > 75 |  | > 75 | > 63.4 | 35.9 | > 75 | 74.4 | > 16 | > 75 | > 48.8 | 17.2 | 43.6 | 26.4 | 41.4 | > 75 | > 40.2 | > 59.5 | > 42.6 | > 75
N#Cc1ccc(N2CCOCC2)cc1 | > 100 | > 100 |  | > 100 | > 100 | > 100 | > 100 | > 100 | > 100 | > 100 | > 100 | > 100 | > 100 | > 100 | > 100 | > 100 | > 100 | > 100 | > 100 | > 100
